In article PMC6920980, “Encapsulation in Polymeric Nanoparticles Enhances the Enzymatic Stability and the Permeability of the GLP-1 Analog, Liraglutide, Across a Culture Model of Intestinal Permeability” (Pharmaceutics, 2019):

What was measured:
[1] = tested on: pancreatin; experiment: Enzymatic degradation study in pancreatin-containing simulated intestinal fluid SIF; assay type: in vitro ADME, porcine; details: SIF with pancreatin (10 g/L, USP), pH 6.8, 37 °C, 100 rpm, 500 μg Lira in 2 mL, HPLC-UV, triplicate
Protocol: Stability analysis in the presence of pepsin and pancreatin was conducted and compared between native Lira and Lira loaded in PLGA NPs. Five hundred micrograms of native Lira, or the amount of NPs containing an equivalent amount of Lira, were added to 2 mL of pepsin-containing simulated gastric fluid SGF (3.2 g pepsin, 2 g of sodium chloride, 7 mL HCl, mixed and diluted with water to 1 L, pH = 1.2) or pancreatin-containing simulated intestinal fluid SIF (10 g pancreatin, 6.8 g KH2PO4, mixed and adjusted with 0.2 N NaOH then diluted with water to 1 L, pH = 6.8) and incubated at 37 °C under stirring at a speed of 100 rpm. The SGF and SIF were prepared as per USP specifications (Test Solutions, United States Pharmacopeia 35, NF 30, 2012). The same methodology was followed to assess the native Lira stability in SGFsp and SIFsp. […] The samples were centrifuged at 16,500× g and 4 °C for 10 min and the supernatant was analyzed by HPLC to calculate the residual Lira. […] Lira recovery in the withdrawn samples was calculated using the following equation: Lira recovery% = (Remaining Lira amount/theoretical Lira amount) × 100
(§1) Lira was analyzed by a reversed phase HPLC (Agilent 1200, San Diego, CA, USA) method that was previously developed and validated in our lab. […]

[2] = Permeability study on the Caco-2 model; assay type: in vitro ADME, human; details: human; Caco-2 on Transwell (polycarbonate, 3 µm pore, 1.12 cm^2), 3 weeks culture, apical to basal, Ringer-buffer pH 7.4, donor 100 µM liraglutide (PN159 3 µM where present), 1 h, HPLC-UV 214 nm, mean, n = 4; read-out: apparent permeability coefficient (Papp) of liraglutide
Protocol: (§2) The Caco-2 intestinal epithelial cell line was purchased from ATCC (cat.no. HTB-37) at passage 60. The cells were grown, as previously reported, in Dulbecco’s modified Eagle’s medium (Gibco, Life Technologies, Carlsbad, CA, USA) supplemented with 10% fetal bovine serum (Pan-Biotech GmbH, Aidenbach, Germany) and 50 μg/mL gentamycin in a humidified incubator with 5% CO2 at 37 °C. All plastic surfaces were coated with 0.05% rat tail collagen in sterile distilled water before cell seeding in culture dishes and the medium was changed every 2 days.
(§3) The concentration of stock solutions for cell culture experiments were 1 mM for both the therapeutic peptide liraglutide and the PN159 peptide, which was used as a reference absorption enhancer. The working solutions were diluted in cell culture medium or Ringer-buffer depending on the experiments. The final concentration of liraglutide encapsulated in the PLGA NPs was 100 µM and was diluted directly before using. Liraglutide was examined at 100 µM, while PN159 was examined at 3 µM concentration both for cell viability and permeability.
(§4) Caco-2 cells were seeded onto Transwell inserts (polycarbonate membrane, 3 µm pore size, 1.12 cm^2 surface area; Corning Life Sciences, Tewksbury, MA, USA) and cultured for three weeks. […] Treatment solutions from both compartments were collected and the Lira level was detected by HPLC.
(§5) The apparent permeability coefficients (Papp) were calculated as described previously. […]
(§6) Recovery (mass balance) was calculated according to the equation: %Recovery=CfDV^D+CfAV^A/C0DV^D×100% where C0D and CfD are the initial and final concentrations of the compound in the donor compartment, respectively; […] is the final concentration in the acceptor compartment; and V^D and V^A are the volumes of the solutions in the donor and acceptor compartments.
as §1

[3] = tested on: Caco-2 epithelial cell layers; experiment: Permeability study on the Caco-2 model; assay type: in vitro ADME, human
Protocol: as §2, §3, §4, §5, §6, §1

[4] = tested on: Caco-2 intestinal epithelial cells; experiment: Cell viability measurement by impedance; assay type: cell-based, human; details: PN159 3 µM; for cell impedance kinetics: Caco-2, 24-h long treatment, liraglutide 100 µM; for cell index values measured by impedance (cell viability): Caco-2, liraglutide 100 µM, Triton X-100 1 mg/mL, in culture medium, kinetics for 24 h and 1-h time point, 10 kHz, n = 6–12
Protocol: as §2, §3
Impedance was measured at 10 kHz by an RTCA SP instrument (RTCA-SP instrument, ACEA Biosciences, San Diego, CA, USA). We have successfully tested the cellular effects of peptides and pharmaceutical excipients by impedance kinetics. For background measurements, 50 μL cell culture medium was added to the wells. This was followed by seeding the cells at a density of 6 × 10^3 cells/well to 96-well plate with gold electrodes (E-plate 96, ACEA Biosciences) coated with collagen. Cells were cultured for 5 days in a CO2 incubator at 37 °C and monitored every 10 min until the end of experiments. Cells were treated at the beginning of the plateau phase of growth. Lira, Lira-loaded PLGA NPs, blank PLGA NPs (without cargo), Lira and PN159 solution, and PN159 peptide were diluted in cell culture medium and the effects were followed for 24 h. Triton X-100 detergent (1 mg/mL) was used as a reference compound to obtain total cell toxicity. Cell index was defined as Rn-Rb at each time point of measurement, where Rn is the cell–electrode impedance of the well when it contains cells and Rb is the background impedance of the well with the medium alone.

[5] = tested on: Caco-2 epithelial cells; experiment: Immunostaining for junctional proteins ZO-1 and β-catenin; assay type: cell-based, human; details: Caco-2 on glass coverslips, 1 h treatment, Lira 100 µM, PN159 3 µM, confocal microscopy
Protocol: Aiming to investigate the morphological changes in interepithelial junctions, immunostaining for the junctional proteins, zonula occludens protein-1 (ZO-1) and β-catenin, was carried out. Cells were grown on glass coverslips (Menzel-Glaser, Braunschweig, Germany) at a density of 4 × 10^4 cells/coverslips for 4 days and treated with Lira (100 µM), Lira loaded in PLGA NPs, Lira and PN159 solution, and PN159 peptide (3 µM) solutions for 1 h. After the treatment, the coverslips were washed with phosphate buffer (PBS) and the cells were fixed with 3% paraformaldehyde solution for 15 min at room temperature and incubated in 0.2% TX-100 solution for permeabilization. The cells were blocked with 3% bovine serum albumin in PBS and incubated with the rabbit primary antibodies, anti-ZO-1 and anti-β-catenin, overnight. Incubation with secondary Cy3-labeled anti-rabbit antibody lasted for 1 h. Hoechst dye 33342 was used to stain the cell nuclei. After mounting the samples (Fluoromount-G; Southern Biotech, Birmingham, AL, USA), the staining was visualized by a Visitron spinning disk confocal system (Visitron Systems GmbH, Puchheim, Germany).

CCCCCCCCCCCCCCCC(=O)N[C@@H](CCC(=O)NCCCC[C@H](NC(=O)[C@H](C)NC(=O)[C@H](C)NC(=O)[C@H](CCC(N)=O)NC(=O)CNC(=O)[C@H](CCC(=O)O)NC(=O)[C@H](CC(C)C)NC(=O)[C@H](Cc1ccc(O)cc1)NC(=O)[C@H](CO)NC(=O)[C@H](CO)NC(=O)[C@@H](NC(=O)[C@H](CC(=O)O)NC(=O)[C@H](CO)NC(=O)[C@@H](NC(=O)[C@H](Cc1ccccc1)NC(=O)[C@@H](NC(=O)CNC(=O)[C@H](CCC(=O)O)NC(=O)[C@H](C)NC(=O)[C@@H](N)Cc1cnc[nH]1)[C@@H](C)O)[C@@H](C)O)C(C)C)C(=O)N[C@@H](CCC(=O)O)C(=O)N[C@@H](Cc1ccccc1)C(=O)N[C@H](C(=O)N[C@@H](C)C(=O)N[C@@H](Cc1c[nH]c2ccccc12)C(=O)N[C@@H](CC(C)C)C(=O)N[C@H](C(=O)N[C@@H](CCCNC(=N)N)C(=O)NCC(=O)N[C@@H](CCCNC(=N)N)C(=O)NCC(=O)O)C(C)C)[C@@H](C)CC)C(=O)O [Liraglutide]
Lira recovery ([1]; 30 min incubation, mean ± SD): 9.2 ± 0.7%
Lira degradation ([1]; 1 h incubation): completely degraded
Papp A→B at 1 h, 100 µM [2]: 16 ×10⁻⁶ cm/s
Recovery (%) Mean ± SD (mass balance) ([3]; after liraglutide permeability on Caco-2 cells, donor 100 µM liraglutide, Ringer-buffer pH 7.4, 1 h, HPLC, mean ± SD): 80.9 ± 1.6%
cell impedance kinetics [4]: no decrease in cell impedance kinetics
cell index values measured by impedance (cell viability) [4]: did not change the cell index values

CC(C)C[C@H](NC(=O)[C@H](C)NC(=O)[C@H](CCCCN)NC(=O)[C@H](CC(C)C)NC(=O)[C@H](C)NC(=O)[C@H](CC(C)C)NC(=O)[C@H](CCCCN)NC(=O)[C@H](CC(C)C)NC(=O)[C@H](C)NC(=O)[C@H](CC(C)C)NC(=O)[C@@H](N)CCCCN)C(=O)N[C@@H](CCCCN)C(=O)N[C@@H](C)C(=O)N[C@@H](C)C(=O)N[C@@H](CC(C)C)C(=O)N[C@@H](CCCCN)C(=O)N[C@@H](CC(C)C)C(=O)N[C@@H](C)C(N)=O [PN159 peptide]
junctional morphology (ZO-1 and β-catenin immunostaining) [5]: visible change in the staining pattern of β-catenin
cell impedance kinetics [4]: no decrease in cell impedance kinetics
cell index values measured by impedance (cell viability) [4]: did not change the cell index values

O=C1OC2(c3ccc(O)cc3Oc3cc(O)ccc32)c2ccccc21 [fluorescein]
Papp of marker molecule ([3]; Caco-2 monolayers, TEER 893 ± 135 Ω × cm^2 before the experiments): below 0.5 × 10^−6 cm/s

Triton X-100
cell index values measured by impedance (cell viability) [4]: impedance dropped to zero
